For five compounds, Activity and inhibition in vivo results are on record in ChEMBL document CHEMBL3046590, “Design and synthesis of some thiazolotriazolyl esters as anti-inflammatory and analgesic agents” (Med Chem Res, 2012).

Data set [1] has as its system Mus musculus. Kind of data set: Toxicity in Mus musculus BALB/c (mouse) assessed as behavioral changes at 50 to 200 mg/kg, po after 72 hr. The class given is organism-based. Details: dose 50-200 mg/kg, route oral. Conditions: in vivo.
For data set [2], the system named is Mus musculus. Kind of data set: Toxicity in Mus musculus BALB/c (mouse) assessed as mortality at 50 to 200 mg/kg, po after 72 hr. It is filed as organism-based. Details: dose 50-200 mg/kg, route oral. Conditions: in vivo.
The subject of data set [3] is Mus musculus. The experiment in a line: Antioxidant activity in Mus musculus BALB/c (mouse) stomach assessed as TBARS level at 100 mg/kg, po (reference value: 80.4 +/- 5.4 nmol/g ). It is filed as functional.
In data set [4] the test system is Mus musculus. Kind of data set: Anti-inflammatory activity in Mus musculus BALB/c (mouse) assessed as inhibition of carrageenan-induced paw swelling at 50 mg/kg, po administered 1 hr followed by carrageenan challenge measured at 270 min relative to control. It is filed as functional. (In general: The carrageenan paw model is a standard test of acute inflammation.)

In data set [5] the test system is Mus musculus. The experiment in a line: Anti-inflammatory activity in Mus musculus BALB/c (mouse) assessed as inhibition of carrageenan-induced paw swelling at 100 mg/kg, po administered 1 hr followed by carrageenan challenge measured at 180 min relative to control. It is filed as functional.
Data set [6] deals with Mus musculus. The experiment in a line: Anti-inflammatory activity in Mus musculus BALB/c (mouse) assessed as inhibition of carrageenan-induced paw swelling at 200 mg/kg, po administered 1 hr followed by carrageenan challenge measured at 90 min relative to control. It is filed as functional.
In data set [7] the test system is Mus musculus. The experiment in a line: Anti-inflammatory activity in Mus musculus BALB/c (mouse) assessed as carrageenan-induced paw swelling at 50 mg/kg, po administered 1 hr followed by carrageenan challenge measured at 360 min (reference value: 105 +/- 4.5 x 10^-2 mm). The class given is functional.
Data set [8] concerns Mus musculus. The experiment in a line: Anti-inflammatory activity in Mus musculus BALB/c (mouse) assessed as carrageenan-induced paw swelling at 200 mg/kg, po administered 1 hr followed by carrageenan challenge measured at 360 min (reference value: 105 +/- 4.5 x 10^-2 mm). It is filed as functional.
Data set [9] relates to Mus musculus. Kind of data set: Anti-inflammatory activity in Mus musculus BALB/c (mouse) assessed as carrageenan-induced paw swelling at 100 mg/kg, po administered 1 hr followed by carrageenan challenge measured at 360 min (reference value: 105 +/- 4.5 x 10^-2 mm). The class given is functional.
Data set [10] relates to Mus musculus. Kind of data set: Anti-inflammatory activity in Mus musculus BALB/c (mouse) assessed as carrageenan-induced paw swelling at 50 mg/kg, po administered 1 hr followed by carrageenan challenge measured at 270 min (reference value: 78 +/- 8.4 x 10^-2 mm). The class given is functional.
Data set [11] relates to Mus musculus. Kind of data set: Anti-inflammatory activity in Mus musculus BALB/c (mouse) assessed as carrageenan-induced paw swelling at 200 mg/kg, po administered 1 hr followed by carrageenan challenge measured at 270 min (reference value: 78 +/- 8.4 x 10^-2 mm). The class given is functional.
Data set [12] relates to Mus musculus. The experiment in a line: Anti-inflammatory activity in Mus musculus BALB/c (mouse) assessed as carrageenan-induced paw swelling at 100 mg/kg, po administered 1 hr followed by carrageenan challenge measured at 270 min (reference value: 78 +/- 8.4 x 10^-2 mm). The class given is functional.
The test system of data set [13] is Mus musculus. Kind of data set: Anti-inflammatory activity in Mus musculus BALB/c (mouse) assessed as carrageenan-induced paw swelling at 50 mg/kg, po administered 1 hr followed by carrageenan challenge measured at 180 min (reference value: 52 +/- 4.6 x 10^-2 mm). It is filed as functional.
For data set [14], the system named is Mus musculus. The experiment in a line: Anti-inflammatory activity in Mus musculus BALB/c (mouse) assessed as carrageenan-induced paw swelling at 200 mg/kg, po administered 1 hr followed by carrageenan challenge measured at 180 min (reference value: 52 +/- 4.6 x 10^-2 mm). It is filed as functional.
Data set [15] deals with Mus musculus. Kind of data set: Anti-inflammatory activity in Mus musculus BALB/c (mouse) assessed as carrageenan-induced paw swelling at 100 mg/kg, po administered 1 hr followed by carrageenan challenge measured at 180 min (reference value: 52 +/- 4.6 x 10^-2 mm). It is filed as functional.
In data set [16] the test system is Mus musculus. The experiment in a line: Anti-inflammatory activity in Mus musculus BALB/c (mouse) assessed as carrageenan-induced paw swelling at 50 mg/kg, po administered 1 hr followed by carrageenan challenge measured at 90 min (reference value: 39 +/- 5.6 x 10^-2 mm). It is filed as functional.
Data set [17] deals with Mus musculus. Kind of data set: Anti-inflammatory activity in Mus musculus BALB/c (mouse) assessed as carrageenan-induced paw swelling at 200 mg/kg, po administered 1 hr followed by carrageenan challenge measured at 90 min (reference value: 39 +/- 5.6 x 10^-2 mm). The class given is functional.
Data set [18] relates to Mus musculus. Kind of data set: Anti-inflammatory activity in Mus musculus BALB/c (mouse) assessed as carrageenan-induced paw swelling at 100 mg/kg, po administered 1 hr followed by carrageenan challenge measured at 90 min (reference value: 39 +/- 5.6 x 10^-2 mm). It is filed as functional.
Data set [19] concerns Mus musculus. The experiment in a line: Analgesic activity in Mus musculus BALB/c (mouse) assessed as inhibition of acetic acid-induced writhing at 100 mg/kg, po administered 1 hr followed by acetic acid challenge measured for 10 min. The class given is functional. For orientation: Writhing tests count abdominal constrictions after an irritant is injected.
The test system of data set [20] is Mus musculus. The experiment in a line: Anti-inflammatory activity in Mus musculus BALB/c (mouse) assessed as inhibition of carrageenan-induced paw swelling at 200 mg/kg, po administered 1 hr followed by carrageenan challenge measured at 360 min relative to control. The class given is functional.
In data set [21] the test system is Mus musculus. The experiment in a line: Anti-inflammatory activity in Mus musculus BALB/c (mouse) assessed as inhibition of carrageenan-induced paw swelling at 100 mg/kg, po administered 1 hr followed by carrageenan challenge measured at 360 min relative to control. It is filed as functional.
Data set [22] relates to Mus musculus. The experiment in a line: Anti-inflammatory activity in Mus musculus BALB/c (mouse) assessed as inhibition of carrageenan-induced paw swelling at 50 mg/kg, po administered 1 hr followed by carrageenan challenge measured at 360 min relative to control. It is filed as functional.
For data set [23], the system named is Mus musculus. The experiment in a line: Anti-inflammatory activity in Mus musculus BALB/c (mouse) assessed as inhibition of carrageenan-induced paw swelling at 200 mg/kg, po administered 1 hr followed by carrageenan challenge measured at 270 min relative to control. It is filed as functional.
Data set [24] relates to Mus musculus. Kind of data set: Anti-inflammatory activity in Mus musculus BALB/c (mouse) assessed as inhibition of carrageenan-induced paw swelling at 100 mg/kg, po administered 1 hr followed by carrageenan challenge measured at 270 min relative to control. It is filed as functional.
Data set [25] deals with Mus musculus. Kind of data set: Anti-inflammatory activity in Mus musculus BALB/c (mouse) assessed as inhibition of carrageenan-induced paw swelling at 200 mg/kg, po administered 1 hr followed by carrageenan challenge measured at 180 min relative to control. It is filed as functional.
Data set [26] concerns Mus musculus. Kind of data set: Anti-inflammatory activity in Mus musculus BALB/c (mouse) assessed as inhibition of carrageenan-induced paw swelling at 10 mg/kg, po administered 1 hr followed by carrageenan challenge measured at 360 min relative to control. The class given is functional.
In data set [27] the test system is Mus musculus. The experiment in a line: Anti-inflammatory activity in Mus musculus BALB/c (mouse) assessed as inhibition of carrageenan-induced paw swelling at 10 mg/kg, po administered 1 hr followed by carrageenan challenge measured at 270 min relative to control. The class given is functional.
The test system of data set [28] is Mus musculus. The experiment in a line: Anti-inflammatory activity in Mus musculus BALB/c (mouse) assessed as inhibition of carrageenan-induced paw swelling at 10 mg/kg, po administered 1 hr followed by carrageenan challenge measured at 180 min relative to control. The class given is functional.
The subject of data set [29] is Mus musculus. Kind of data set: Anti-inflammatory activity in Mus musculus BALB/c (mouse) assessed as inhibition of carrageenan-induced paw swelling at 10 mg/kg, po administered 1 hr followed by carrageenan challenge measured at 90 min relative to control. The class given is functional.

For `COc1ccc(-c2nnc(S)[nH]2)cc1`, the Activity entry is recorded as “Non-toxic” in [1]; “Non-toxic” in data set [2]; 73.3 nmol/g in data set [3]; 100 ×10⁻² mm in data set [7]; 104.5 ×10⁻² mm in [8]; 133 ×10⁻² mm in data set [9]. Further, the Activity is on record as 64.8 ×10⁻² mm in [10]; 75 ×10⁻² mm in data set [11]; 79.5 ×10⁻² mm in [12]; 49.7 ×10⁻² mm in [13]; 53.2 ×10⁻² mm in [14]; 32.3 ×10⁻² mm in data set [15]. The results for the Activity in data set [16], in [17] and in data set [18] were 59.3 ×10⁻² mm, 32.4 ×10⁻² mm and 33.7 ×10⁻² mm, respectively. Further, the inhibition in vivo (commonly how much of the control response was suppressed) at 50 mg/kg in data set [4] is 17.9%. In addition, the inhibition in vivo at 100 mg/kg in data set [5] was 37.9%. Further, the inhibition in vivo at 200 mg/kg in data set [6] worked out at 16.9%.

As for `COc1ccc(CCC2=NC(=S)N=N2)cc1`, the Activity entry was “Non-toxic” in data set [1]; “Non-toxic” in data set [2]; 116.2 nmol/g in data set [3]; 78.2 ×10⁻² mm in [7]; 87.6 ×10⁻² mm in [8]; 80.5 ×10⁻² mm in data set [9]. Moreover, the Activity in [10] is 73.6 ×10⁻² mm; in [11] it was 66.3 ×10⁻² mm; in data set [12], 54 ×10⁻² mm; in data set [13], 46.8 ×10⁻² mm; in [14] it was 46.4 ×10⁻² mm; in data set [15], 25.3 ×10⁻² mm. Moreover, the Activity amounted to 50 ×10⁻² mm in data set [16], 42.1 ×10⁻² mm in [17] and 36.3 ×10⁻² mm in data set [18]. Besides, the inhibition in vivo at 100 mg/kg in [19] was 24.3%; in [21], 23.3%; in data set [24], 30.8%; in data set [5] it was 51.3%. Besides, the figures for the inhibition in vivo at 200 mg/kg in data set [20] and in data set [23] were 16.6% and 15%, respectively. For the same compound, the inhibition in vivo at 50 mg/kg in data set [22] came out at 25.5%.

With `CCOC(=O)Cc1csc2nc(-c3ccc(Cl)cc3)nn12`, the Activity result is recorded as “Non-toxic” in [1]; “Non-toxic” in data set [2]; 157.2 nmol/g in [3]; 105 ×10⁻² mm in [7]; 86.7 ×10⁻² mm in data set [8]; 70 ×10⁻² mm in [9]. The Activity is 88.5 ×10⁻² mm in data set [10]; 58.6 ×10⁻² mm in data set [11]; 82.5 ×10⁻² mm in data set [12]; 66.1 ×10⁻² mm in data set [13]; 37.2 ×10⁻² mm in [14]; 52.5 ×10⁻² mm in [15]. For the same compound, the Activity was determined as 61 ×10⁻² mm in [16], 29.1 ×10⁻² mm in [17] and 43.7 ×10⁻² mm in [18]. The results for the inhibition in vivo at 100 mg/kg in data set [19] and in [21] were 38.5% and 33.3%, respectively. Moreover, the inhibition in vivo at 200 mg/kg in data set [20] stood at 17.4%; in data set [23], 24.9%; in data set [25], 28.5%; in data set [6], 25.4%.

For `CCOC(=O)Cc1csc2nc(-c3cc(Cl)cc(Cl)c3)nn12`, the Activity result in [1] was “Non-toxic”; in data set [2] it was “Non-toxic”; in data set [3], 200.1 nmol/g; in [7], 96 ×10⁻² mm; in data set [8], 83.1 ×10⁻² mm; in data set [9] it was 60 ×10⁻² mm. The Activity in data set [10] amounted to 78 ×10⁻² mm; in data set [11] it was 61.3 ×10⁻² mm; in [12], 65 ×10⁻² mm; in [13], 49 ×10⁻² mm; in data set [14], 43 ×10⁻² mm; in data set [15], 66.2 ×10⁻² mm. In addition, the figures for the Activity in [16], in data set [17] and in [18] were 70.4 ×10⁻² mm, 41.6 ×10⁻² mm and 40 ×10⁻² mm, respectively. In addition, the values for the inhibition in vivo at 100 mg/kg in data set [19], in [21] and in [24] were 35.9%, 42.8% and 16.7%, respectively. For the same compound, the results for the inhibition in vivo at 200 mg/kg in data set [20], in [23] and in [25] were 20.8%, 21.4% and 17.3%, respectively.

With `COc1ccc2c(c1)c(CC(=O)O)c(C)n2C(=O)c1ccc(Cl)cc1` [INDOMETHACIN], the Activity result in data set [1] and in [2] was “Non-toxic” in each case. The inhibition in vivo at 10 mg/kg in data set [26] turned out to be 26.7%; in data set [27], 34.6%; in data set [28], 56.7%; in [29] it was 6.9%.
